Laboratory results from patent US9868758B2, “Betulinic proline imidazole derivatives as HIV inhibitors” (HETERO LABS LIMITED, priority 2014, dated 2018).
Where two headings read alike, the source gives them in different places.

Experiments:
[1] = tested on: HIV-1 strains, for e.g., 92HT599; test: Antiviral activity: p24 estimation in HIV-1 infected MT-2 cells; format: cell-based
Protocol: MT-2 cells were infected with required number of TCID50's of HIV-1 strains, for e.g., 92HT599. The infected cells were plated at the concentration of 30,000 cells per well in a 96 well plate. Test compound was added to the 96 well plate with the final concentration of DMSO (vehicle—not more than 1%). The plates are then incubated in a CO2 incubator for ˜96 hours (˜4 days) for viral infection. At the end of incubation period an aliquot from each well was taken for p24 estimation. The quantitation of p24 is an estimated index for antiviral activity of the compound. Percent inhibition was calculated with reference to control values (vehicle controls).
p-24 estimation was carried out using Advance biosciences kit as per the procedure detailed by supplier.

[2] = Single dose oral pharmacokinetic study; set-up: species or system mice; conditions: mouse, in vivo
Protocol: The test item was administered through oral route to animals (rat/mice) at 30 mg/kg dose in a suitable vehicle at 10 ml/kg dose volume. Blood samples (˜50 uL at each time point) were collected from retro-orbital plexus using K3 EDTA as anticoagulant in eppendorf tubes at defined time intervals under light ether anesthesia. The samples were centrifuged at 3500×g to separate plasma and stored at −80° C. until analysis.
Sample analysis: Test samples were analyzed using LC-MS-MS after developing fit-for-purpose method for each of test compound.

[3] = Human immunodeficiency virus 1, MT2, MT-2 cells, p24, read-out: Antiviral activity IC50
[4] = Human immunodeficiency virus 1, MT2, read-out: Antiviral activity IC50 (nM)
[5] = Mice oral PK @30 mg/kg, plasma, read-out: AUC 0-t
[6] = Mice oral PK @30 mg/kg, plasma, read-out: Cmax

Row | SMILES | IC50 [1, 3] | AUC(0-t) ([2]; po, 30 mg/kg) | Cmax ([2]; po, 30 mg/kg) | IC50 [1, 4] | AUC(0-t) [2, 5] | Cmax [2, 6]
1 | C=C(C)[C@@H]1CC[C@]2(C(=O)N3CCC[C@H]3c3nc(C(C)(C)C)cn3CCN(C)C)CC[C@]3(C)[C@H](CC[C@@H]4[C@@]5(C)CC[C@H](OC(=O)[C@H]6C[C@@H](C(=O)O)C6(C)C)C(C)(C)[C@@H]5CC[C@]43C)[C@@H]12 [Compound 11, (1R,3S)-3-((((1R,3aS,5aR,5bR,7aR,9S,11aR,11bR,13aR,13bR)-3a-((S)-2-(4-(tert-butyl)-1-(2-(dimethylamino)ethyl)-1H-imidazol-2-yl)pyrrolidine-1-carbonyl)-5a,5b,8,8,11a-pentamethyl-1-(prop-1-en-2-yl)icosahydro-1H-cyclopenta[a]chrysen-9-yl)oxy)carbonyl)-2,2-dimethyl cyclobutane-1-carboxylic acid] | 3.58 nM | 755 µg·h/mL | 18100 ng/mL |  |  | 
2 | C=C(C)[C@@H]1CC[C@]2(C(=O)N3CCC[C@H]3c3nc(-c4ccccc4)cn3C)CC[C@]3(C)[C@H](CC[C@@H]4[C@@]5(C)CC[C@H](OC(=O)CC(C)(C)C(=O)O)C(C)(C)[C@@H]5CC[C@]43C)[C@@H]12 [Compound 15, 2,2-dimethyl-4-oxo-4-(((1R,3aS,5aR,5bR,7aR,9S,11aR,11bR,13aR,13bR)-5a,5b,8,8,11a-pentamethyl-3a-((S)-2-(1-methyl-4-phenyl-1H-imidazol-2-yl)pyrrolidine-1-carbonyl)-1-(prop-1-en-2-yl)icosahydro-1H-cyclopenta[a]chrysen-9-yl)oxy)butanoic acid] | 7.42 nM | 376 µg·h/mL | 15300 ng/mL |  |  | 
3 | C=C(C)[C@@H]1CC[C@]2(C(=O)N3CCC[C@H]3c3nc(-c4ccccc4)cn3CCN(C)C)CC[C@]3(C)[C@H](CC[C@@H]4[C@@]5(C)CC[C@H](OC(=O)CC(C)(C)C(=O)O)C(C)(C)[C@@H]5CC[C@]43C)[C@@H]12 [Compound 16, 4-(((1R,3aS,5aR,5bR,7aR,9S,11aR,11bR,13aR,13bR)-3a-((S)-2-(1-(2-(dimethylamino)ethyl)-4-phenyl-1H-imidazol-2-yl)pyrrolidine-1-carbonyl)-5a,5b,8,8,11a-pentamethyl-1-(prop-1-en-2-yl)icosahydro-1H-cyclopenta[a]chrysen-9-yl)oxy)-2,2-dimethyl-4-oxo butanoic acid] | 8.48 nM | 294 µg·h/mL | 9030 ng/mL |  |  | 
4 | C=C(C)[C@@H]1CC[C@]2(C(=O)N3CCC[C@H]3c3nc(-c4ccccc4)cn3CCOC)CC[C@]3(C)[C@H](CC[C@@H]4[C@@]5(C)CC[C@H](OC(=O)CC(C)(C)C(=O)O)C(C)(C)[C@@H]5CC[C@]43C)[C@@H]12 [Compound 17, 4-(((1R,3aS,5aR,5bR,7aR,9S,11aR,11bR,13aR,13bR)-3a-((S)-2-(1-(2-methoxyethyl)-4-phenyl-1H-imidazol-2-yl)pyrrolidine-1-carbonyl)-5a,5b,8,8,11a-pentamethyl-1-(prop-1-en-2-yl)icosahydro-1H-cyclopenta[a]chrysen-9-yl)oxy)-2,2-dimethyl-4-oxobutanoic acid] | 0.3 nM | 271 µg·h/mL | 13000 ng/mL |  |  | 
5 | C=C(C)[C@@H]1CC[C@]2(C(=O)N3CCC[C@H]3c3nc(-c4cccnc4)cn3CCN(C)C)CC[C@]3(C)[C@H](CC[C@@H]4[C@@]5(C)CC[C@H](OC(=O)CC(C)(C)C(=O)O)C(C)(C)[C@@H]5CC[C@]43C)[C@@H]12 [Compound 18, 4-(((1R,3aS,5aR,5bR,7aR,9S,11aR,11bR,13aR,13bR)-3a-((S)-2-(1-(2-(dimethylamino)ethyl)-4-(pyridin-3-yl)-1H-imidazol-2-yl)pyrrolidine-1-carbonyl)-5a,5b,8,8,11a-pentamethyl-1-(prop-1-en-2-yl)icosahydro-1H-cyclopenta[a]chrysen-9-yl)oxy)-2,2-dimethyl-4-oxobutanoic acid] | 80.4 nM | 3.01 µg·h/mL | 648 ng/mL |  |  | 
6 | CN(C)CCn1cc(-c2cccnc2)nc1[C@@H]1CCCN1C(=O)[C@]12CC[C@@H](C3(C)CC3)[C@@H]1[C@H]1CC[C@@H]3[C@@]4(C)CC[C@H](OC(=O)[C@H]5C[C@@H](C(=O)O)C5(C)C)C(C)(C)[C@@H]4CC[C@@]3(C)[C@]1(C)CC2 [Compound 19, (1R,3S)-3-((((1R,3aS,5aR,5bR,7aR,9S,11aR,11bR,13aR,13bR)-3a-((S)-2-(1-(2-(dimethylamino)ethyl)-4-(pyridin-3-yl)-1H-imidazol-2-yl)pyrrolidine-1-carbonyl)-5a,5b,8,8,11a-pentamethyl-1-(1-methylcyclopropyl)icosahydro-1H-cyclopenta[a]chrysen-9-yl)oxy)carbonyl)-2,2-dimethylcyclobutane-1-carboxylic acid] | 7.76 nM | 97.4 µg·h/mL | 4260 ng/mL |  |  | 
7 | C=C(C)[C@@H]1CC[C@]2(C(=O)N3CCC[C@H]3c3nc(-c4ccccc4)cn3CCP(=O)(OCC)OCC)CC[C@]3(C)[C@H](CC[C@@H]4[C@@]5(C)CC[C@H](OC(=O)[C@H]6C[C@@H](C(=O)O)C6(C)C)C(C)(C)[C@@H]5CC[C@]43C)[C@@H]12 [Compound 22, (1R,3S)-3-((((1R,3aS,5aR,5bR,7aR,9S,11aR,11bR,13aR,13bR)-3a-((S)-2-(1-(2-(diethoxyphosphoryl)ethyl)-4-phenyl-1H-imidazol-2-yl)pyrrolidine-1-carbonyl)-5a,5b,8,8,11a-pentamethyl-1-(prop-1-en-2-yl)icosahydro-1H-cyclopenta[a]chrysen-9-yl)oxy)carbonyl)-2,2-dimethyl cyclobutane-1-carboxylic acid] |  |  |  | 14.9 nM | 215 µg·h/mL | 5830 ng/mL
8 | C=C(C)[C@@H]1CC[C@]2(C(=O)N3CCC[C@H]3c3nc(-c4ccc(F)cc4)cn3CCP(=O)(OCC)OCC)CC[C@]3(C)[C@H](CC[C@@H]4[C@@]5(C)CC[C@H](OC(=O)[C@H]6C[C@@H](C(=O)O)C6(C)C)C(C)(C)[C@@H]5CC[C@]43C)[C@@H]12 [Compound 24, (1R,3S)-3-((((1R,3aS,5aR,5bR,7aR,9S,11aR,11bR,13aR,13bR)-3a-((S)-2-(1-(2-(diethoxyphosphoryl)ethyl)-4-(4-fluorophenyl)-1H-imidazol-2-yl)pyrrolidine-1-carbonyl)-5a,5b,8,8,11a-pentamethyl-1-(prop-1-en-2-yl)icosahydro-1H-cyclopenta[a]chrysen-9-yl)oxy)carbonyl)-2,2-dimethylcyclobutane-1-carboxylic acid] |  |  |  | 0.972 nM | 89.4 µg·h/mL | 2550 ng/mL
